Measured values as given in US20240180881A1, “METHODS FOR DECREASING RESISTANCE TO CHEMOTHERAPY” (National Institute of Immunology, priority 2022, published 2024).

Assays:
[1] = molecular target: T1, RAD54 ATPase activity (Homo sapiens, UniProt Q92698); experiment: ATPase assay; assay type: biochemical; details: 10 μM compound
T1 construct: made in house; host or cells: E. coli BL-21 DE3
T1 sequence (Q92698 1-747): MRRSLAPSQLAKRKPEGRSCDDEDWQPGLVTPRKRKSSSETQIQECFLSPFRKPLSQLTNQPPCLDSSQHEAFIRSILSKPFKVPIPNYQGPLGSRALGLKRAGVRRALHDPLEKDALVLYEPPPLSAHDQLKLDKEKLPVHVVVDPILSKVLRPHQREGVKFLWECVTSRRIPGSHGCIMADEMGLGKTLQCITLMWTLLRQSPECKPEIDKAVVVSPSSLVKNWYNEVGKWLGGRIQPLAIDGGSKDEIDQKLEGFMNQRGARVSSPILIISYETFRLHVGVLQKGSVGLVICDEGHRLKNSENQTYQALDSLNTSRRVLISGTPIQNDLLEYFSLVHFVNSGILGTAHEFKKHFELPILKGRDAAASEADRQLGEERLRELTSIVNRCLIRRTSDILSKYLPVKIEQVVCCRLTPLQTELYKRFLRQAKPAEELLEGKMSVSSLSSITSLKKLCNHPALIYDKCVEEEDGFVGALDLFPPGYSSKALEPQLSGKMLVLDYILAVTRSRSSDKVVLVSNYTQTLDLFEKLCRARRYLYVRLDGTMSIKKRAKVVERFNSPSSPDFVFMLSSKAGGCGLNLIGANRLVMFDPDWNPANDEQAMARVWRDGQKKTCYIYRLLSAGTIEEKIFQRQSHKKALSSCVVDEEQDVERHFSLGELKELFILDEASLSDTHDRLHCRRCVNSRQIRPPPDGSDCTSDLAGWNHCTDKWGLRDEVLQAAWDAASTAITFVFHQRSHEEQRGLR
Procedure: The data is from three independent experiments. Mean±S.D.
The presence of the disruptors also led to a decrease in the ATP binding to RAD54.
Assay for RAD54 ATPase activity was carried out as per the previously published protocol (Srivastava et al., 2009). His-RAD54 (120 nM) was incubated with the GST-BLM (1-212) or BLM_peptide or SCM_peptide (180 nM). […] 1 μl of the sample was spotted on the polyethyleneimine-coated TLC plate, resolved in 1M Formic Acid and 0.3M LiCl. The products of ATP hydrolysis were then visualized by Phosphoimager scans taken in Typhoon™ laser-scanner platform (Cytiva) and quantitated using the inbuilt software.

[2] = tested on: HCT116 IC60 CPTR tumors; experiment: siRNA-based ablation in xenograft studies; assay type: in vivo, SCID mice
Procedure: To determine whether the three key players (MRP2, BLM and RAD54) were indispensable for reverting chemoresistance in colon cancer, siRNA-based ablation in xenograft studies was carried out using SCID mice. Once the tumor volume reached 50 mm^3, either siControl or siRAD54 or siBLM or siMRP2 were injected at the base of the tumor using TAC6 polymer mediated in vivo delivery. The experiment was stopped after 21 days after which the levels of RAD54, BLM, MRP2 transcripts were analyzed by RT-qPCR to validate the downregulation of the cognate genes (FIG. 14A-14C). […] This is probably because of greater retention of CPT inside the tumors and thereby allowing increased chemotherapeutic potential of the drug (FIG. 7B).

[3] = molecular target: T2, RAD54-BLM interaction (Homo sapiens, UniProt Q92698); experiment: In vitro interaction assay, bound GST-BLM WT and soluble His-RAD54 WT; assay type: binding; details: 10 μM compound
T2 construct: made in house; host or cells: E. coli BL-21 DE3
T2 sequence (Q92698 1-747): T1 sequence (Q92698 1-747)
Procedure: (§1) The levels of bound RAD54 were determined by immunoblotting with anti-RAD54 antibody (FIG. 5B). […] (Left) Direct westerns were carried out with antibodies against BLM, RAD54, bActin. (Right) immunoprecipitation (IP) was carried out with anti-BLM antibody. Westerns were carried out with anti-BLM, anti-RAD54 antibodies. The experiment was repeated three times and one representative experiment has been shown (FIG. 11B).
pcDNA3.1 Flag RAD54 was used for coupled in vitro transcription/translation of RAD54 using T7 Quick coupled Transcription/Translation System kit S^35 methionine. Interaction between bound GST-BLM (wildtype or mutants) and radiolabelled RAD54 were carried out as described previously (Gupta et al., 2014). […] 10 μM of the 3 compounds were used in the in vitro interaction assays.

[4] = molecular target: T3, RAD54-BLM interaction in HEK293T cells (Homo sapiens, UniProt Q92698); experiment: In cellulo interaction assay, immunoprecipitation with anti-BLM antibody; assay type: cell-based; details: 100 nM compound, 72 hours
T3 construct: endogenous in cells; host or cells: HEK293T
T3 sequence (Q92698 1-747): T1 sequence (Q92698 1-747)
Procedure: as §1

[5] = tested on: MDR genes (MRP2, MRP3, MRP5, MXR) in HCT116 IC60 CPTR cells; details: 100 nM compound alone, 72 hours
Procedure: Concentrations of CPT used: 0.140 nM, 20 nM, 50 nM, 1000 nM. Concentration of 1-OHP: 0.14 μM, 2 μM, 4 μM, 6 μM, 8 μM. Concentrations of CDDP used: 0.140 μM, 2 μM, 5 μM, 10 μM. The percentage of viable cells were determined by MTT assays (FIG. 12A-12C). The data in FIG. 12A and FIG. 12C is from three independent experiments and the data in FIG. 12B is from nine independent experiments. […] The levels of MRP2, MRP3, MRP5, MXR were quantitated from three independent experiments. […] Specifically, HCT116 IC60 CPTR cells were transfected with the HR substrate for 72 hours and the levels of HR was determined (FIG. 6A). The data is from three independent experiments. […] The number of soft agar colonies in each condition were counted. The data is from three independent experiments.

| Compound | BLM dependent enhancement of ATPase activity of RAD54 (ATP hydrolysis) [1] | tumor growth ([2]; siBLM, compound and CPT) | tumor volume ([2]; siControl, compound and CPT compared to only CPT) | tumor development ([2]; siMRP2, compound and CPT) | levels of RAD54 bound to GST-BLM WT [3] | RAD54 co-immunoprecipitated with BLM [4] | transcript levels of MDR genes [5] |
| --- | --- | --- | --- | --- | --- | --- | --- |
| CN1CCN(C2=Nc3ccccc3Oc3ccc(Cl)cc32)CC1.O=C(O)CCC(=O)O [C17, Loxapine succinate] | reduced the extent of ATP hydrolysis | rescued tumor growth | decreased tumor volume | decreased tumor development |  |  |  |
| CC(=O)Nc1nnc(S(N)(=O)=O)s1 [C3, Acetazolamide] | reduced the extent of ATP hydrolysis |  |  |  | disrupted the RAD54-BLM interaction | disrupted the RAD54-BLM interaction | do not alter the transcript levels of MDR genes |
| OCCN(CCO)c1nc(N2CCCCC2)c2nc(N(CCO)CCO)nc(N3CCCCC3)c2n1 [C7, Dipyridamole] | reduced the extent of ATP hydrolysis |  |  |  | disrupted the RAD54-BLM interaction | disrupted the RAD54-BLM interaction | do not alter the transcript levels of MDR genes |
